The source of these data is US20250034159A1, “INHIBITORS OF EPIDERMAL GROWTH FACTOR RECEPTOR” (ORIC Pharmaceuticals, Inc., priority 2021, published 2025).

Where two headings read alike, the source gives them in different places.

In assay [1] the target is recombinant human EGFR exon 19 deletion/C797S double mutant protein (Homo sapiens (Human), UniProt P00533, C797S/DEL746-750). Description: Biological Activity Assay C: biochemical assay against EGFR exon 19 deletion/C797S protein (EGFR d19/CS). On the procedure:
In Row A of a 384-well polypropylene plate, was added 48 μL of DMSO. In wells A1 and A24, were added 12 μL of DMSO. […] To a well in Row A were added 12 μL of each 10 mM test compound stock (100% DMSO). […] The final intermediate dilution plate contained 4×16-point compound serial dilutions in assay buffer. The DMSO concentration was 10%. The intermediate compound dilution plate was transferred to the Bravo and the “5 uL dispense into ARP.pro” protocol was run. To the black low volume assay ready plates, were added 5 μL of 40 uM Phosphosens peptide sensor/4 mM ATP working solution to each well. […] To column 24, was added 10 μL of assay buffer. The final DMSO concentration was 2.5%. […] The plates were sealed with the TopSeal-A Plus plate seals. […] Set for 90 cycles with 120 second interval. […] The slope of each curve was constructed using Dotmatics in each well, and each IC50s was calculated using a 4-parameter fit model.

In the next assay the test system is Ba/F3_EGFR WT cells. Nature of the assay: Biological Activity Assay D: BaF3 cell proliferation assay, EGFR wild-type (BaF3 WT). The conditions noted are these: Ba/F3 EGFR, read-out: BaF3 WT IC50. The class given is cell-based. On the procedure:
(§1) One frozen vial of cells should be thawed into one T25 flask in 10 mL media. Keep the flask upright in the incubator.
(§2) Method: One frozen vial of cells was thawed into one T25 flask in 10 mL media and the flask was kept upright in the incubator. Cells were split 1:10 every two to three days when cells reached confluency of around 1×10^6 cells/mL. Bravo protocol files were used with Greiner 384-well plates for all steps of compound preparation, cell plating and compound addition. […] 16 μL of DMSO were added (for compounds starting at 20 μM) or 28 μL DMSO (for compounds starting at 5 μM) to 96-well V-bottom polypropylene plate: wells 1A-1H (8 compounds/plate). […] 20 μL DMSO were added to the remainder of the wells (columns 2-12) in the 96-well V-bottom plate. A Bravo liquid handler was used to make 1:3 serial dilutions from columns 1 to 11 (12 remains as DMSO only) to prepare the DMSO dilution plate. 144 μL media were added to each well of a new 96-well V-bottom polypropylene plate to prepare the intermediate dilution plate. A Bravo or 96-head Integra liquid handler was used to add and mix 6 μL of test compound from the DMSO dilution plate to the intermediate dilution plate. (1:25 dilution). Cells were transferred from a flask into a 50 mL conical, vortex gently and the number of cells were counted, with a target cell number of about 1×10^6 cells per mL. The cells were diluted in culture medium in 50 mL conical or T25 flask, and the cell suspension was added to BRAVO reservoir and then use Bravo protocol to plate the appropriate number of cells shown below in 36 μl of medium per well as follows: Ba/F3-WT-EGFR 2000 cells per well of a 384 well plate; Ba/F3-LR/CS-EGFR 2000 cells per well of a 384 well plate; and Ba/F3-d19/CS-EGFR 1500 cells per well of a 384 well plate. An extra 10 mL of dead volume was utilized in each reservoir.
(§3) Using a Bravo liquid handler, 4 μl of test compound solution was added per well from the intermediate dilution plate to plated cells (1:10 dilution from the intermediate plate, final compound dilution 1:250 and final DMSO concentration per well is 0.4%). Using the 96 BRAVO Head, 25 μl were aspirated from the intermediate dilution plate and 4 μl each were dispensed into 4 wells (square pattern) in the 384-well plate. Any remaining test compound is dispensed into a secondary plate to prevent cross contamination of cells in the intermediate compound plate. After the compounds were added, the plate was shaken at 600 rpm gently for 60 see, and the plates were incubated in a tissue culture incubator, 37° C., 5% CO2, for ˜ 72 hours. After incubation, CTG 2.0 reagent was allowed to equilibrate to room temperature (˜3 hours) and cells to reach room temperature (˜10-15 minutes) and reagent was added to cells (40 μL/well) using a Bravo liquid handler. The plates were shaken to allow proper mixing (˜5 min) and let settle for 10 minutes and were read on Tecan plate reader using the appropriate luminescence method. Data from plate reader was transferred to an excel file and entered directly into Dotmatics using the protocols under EGFR Project/Cell Proliferation/named: “BaF3_EGFRwt_CP”, “BaF3_EGFR_d19/CS_CP”, “BaF3_EGFR_LR/CS_CP”. Curves were fit with a 4-parameter model and IC50s calculated by the Dotmatics software. DMSO wells were averaged to define the high control (100% growth). The average of the highest concentration of the positive control compound (afatinib) was used to define the 0% growth and used to lock the bottom of the curves. The tops of the curves were not fixed.

A further assay has as its system BaF3_EGFR LR/CS cells. Nature of the assay: Biological Activity Assay D: BaF3 cell proliferation assay, EGFR L858R/C797S mutant (BaF3 LR/CS). The settings on record: Ba/F3 EGFR, read-out: BaF3 LR/CS IC50. The format is cell-based. On the procedure:
as §1, §2, §3

In a further assay the test system is BaF3_EGFR d19/CS cells. Nature of the assay: Biological Activity Assay D: BaF3 cell proliferation assay, EGFR exon 19 deletion/C797S (BaF3 d19/CS). The conditions noted are these: Ba/F3 EGFR, read-out: BaF3 d19/CS IC50. The format is cell-based. On the procedure:
as §1, §2, §3

Where [2] appears, read: Ba/F3_EGFR WT cells, ~72 hours, CellTiter-Glo.
[3] abbreviates: BaF3_EGFR LR/CS cells, ~72 hours, CellTiter-Glo.
[4] abbreviates: BaF3_EGFR d19/CS cells, ~72 hours, CellTiter-Glo.

Chain of recombinant human EGFR exon 19 deletion/C797S double mutant protein (P00533 other isoform, or with tags, fused parts or gaps C797S/del 1-668/del 746-750 limits assumed): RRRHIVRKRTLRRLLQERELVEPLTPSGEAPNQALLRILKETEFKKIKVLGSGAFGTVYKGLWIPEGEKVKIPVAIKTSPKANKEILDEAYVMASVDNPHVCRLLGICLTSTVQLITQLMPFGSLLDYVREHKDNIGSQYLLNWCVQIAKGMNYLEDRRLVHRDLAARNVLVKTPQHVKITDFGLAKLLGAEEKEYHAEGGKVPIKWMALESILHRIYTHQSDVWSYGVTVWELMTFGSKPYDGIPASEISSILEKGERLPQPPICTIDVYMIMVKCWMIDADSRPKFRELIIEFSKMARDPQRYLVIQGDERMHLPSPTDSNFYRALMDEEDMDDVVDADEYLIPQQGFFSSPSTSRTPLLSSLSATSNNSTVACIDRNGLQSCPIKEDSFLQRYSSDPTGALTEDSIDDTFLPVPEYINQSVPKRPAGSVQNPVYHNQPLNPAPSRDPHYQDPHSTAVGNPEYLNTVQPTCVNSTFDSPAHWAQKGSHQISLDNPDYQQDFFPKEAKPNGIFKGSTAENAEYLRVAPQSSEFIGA

With `Fc1ccc(-c2nn(C3CCCOC3)cc2-c2ncnc3oc(-c4ccccc4)cc23)cc1` (racemic) [Example 122, 4-(3-(4-Fluorophenyl)-1-(tetrahydro-2H-pyran-3-yl)-1H-pyrazol-4-yl)-6-phenylfuro[2,3-d]pyrimidine], the IC50 turned out to be 0.55 nM in assay [1], 1850 nM with Ba/F3_EGFR WT cells (setting [2]), 68 nM in the assay on BaF3_EGFR LR/CS cells (setting [3]) and 114 nM in the assay on BaF3_EGFR d19/CS cells (setting [4]).
For `Fc1ccc(-c2nn([C@H]3CCOC[C@@H]3F)cc2-c2ncnc3oc(-c4ccccc4)cc23)cc1` (racemic) [Example 151, 4-[1-(3-fluorooxan-4-yl)-3-(4-fluorophenyl)-1H-pyrazol-4-yl]-6-phenylfuro[2,3-d]pyrimidine], in that order: 1.45 nM, 1870 nM, 16.1 nM and 68.1 nM.
For `Fc1ccc(-c2nn([C@H]3CCOC[C@H]3F)cc2-c2ncnc3oc(-c4ccccc4)cc23)cc1` (racemic) [Example 184, 4-[1-(3-fluorooxan-4-yl)-3-(4-fluorophenyl)-1H-pyrazol-4-yl]-6-phenylfuro[2,3-d]pyrimidine], the IC50 in assay [1] is 0.26 nM; in the assay with Ba/F3_EGFR WT cells (setting [2]), 1770 nM; in the assay with BaF3_EGFR LR/CS cells (setting [3]) it was 30.7 nM; in the assay with BaF3_EGFR d19/CS cells (setting [4]), 57.6 nM.
The like results for `CS(=O)(=O)[C@@H]1CC[C@H](n2cc(-c3ncnc4oc(-c5ccccc5)cc34)c(-c3ccc(F)cc3)n2)C1` (racemic) [Example 185, 4-{3-(4-fluorophenyl)-1-[3-(methanesulfonyl)cyclopentyl]-1H-pyrazol-4-yl}-6-phenylfuro[2,3-d]pyrimidine] were, in that order, 1.43 nM, 6980 nM, 256 nM and 395 nM.
The like results for `C[C@@H]1OCC[C@H]1n1cc(-c2ncnc3oc(-c4ccccc4)cc23)c(-c2ccc(F)cc2)n1` (racemic) [Example 199, 2,5-anhydro-1,3,4-trideoxy-3-[3-(4-fluorophenyl)-4-(6-phenylfuro[2,3-d]pyrimidin-4-yl)-1H-pyrazol-1-yl]pentitol] were, in that order, 0.92 nM, 3340 nM, 85.4 nM and 294 nM.
The like results for `CC1(C)CC(n2cc(-c3ncnc4oc(-c5ccccc5)cc34)c(-c3ccc(F)cc3)n2)CO1` (racemic) [Example 227, 4-[1-(5,5-dimethyloxolan-3-yl)-3-(4-fluorophenyl)-1H-pyrazol-4-yl]-6-phenylfuro[2,3-d]pyrimidine] were, in that order, 0.63 nM, 2670 nM, 53.3 nM and 42.3 nM.
Consider `O=S1(=O)CCC[C@H](Cn2cc(-c3ncnc4oc(-c5ccccc5)cc34)c(-c3ccc(F)cc3)n2)C1` (single isomer, unassigned) [Example 125], for which the IC50 in assay [1] stood at 0.21 nM; in the assay with Ba/F3_EGFR WT cells (setting [2]), 741 nM; in the assay on BaF3_EGFR LR/CS cells (setting [3]) it was 11.8 nM; with BaF3_EGFR d19/CS cells (setting [4]), 52.1 nM.
The like results for `O=S1(=O)CCC[C@@H](Cn2cc(-c3ncnc4oc(-c5ccccc5)cc34)c(-c3ccc(F)cc3)n2)C1` (single isomer, unassigned) [Example 126] were, in that order, 0.18 nM, 720 nM, 14.6 nM and 58.2 nM.
On to `Fc1ccc(-n2nccc2-c2ccnc3[nH]c(-c4ccccc4)cc23)cc1` [Example 1, 4-[1-(4-fluorophenyl)-1H-pyrazol-5-yl]-2-phenyl-1H-pyrrolo[2,3-b]pyridine], for which the IC50 worked out at 2570 nM in the assay with Ba/F3_EGFR WT cells (setting [2]), 349 nM with BaF3_EGFR LR/CS cells (setting [3]) and 211 nM in the assay on BaF3_EGFR d19/CS cells (setting [4]).
The like results for `OCCCc1nc(-c2ccnc3[nH]c(-c4ccccc4)cc23)n(-c2ccc(F)cc2)n1` [Example 2, 3-[1-(4-Fluorophenyl)-5-(2-phenyl-1H-pyrrolo[2,3-b]pyridin-4-yl)-1H-1,2,4-triazol-3-yl]propan-1-ol] were, in that order, 724 nM, 89.5 nM and 104 nM.
The like results for `OCCCn1cc(-c2ccnc3cc(-c4ccccc4)[nH]c23)c(-c2ccc(F)cc2)n1` [Example 7, 3-[3-(4-Fluorophenyl)-4-(2-phenyl-1H-pyrrolo[3,2-b]pyridin-7-yl)-1H-pyrazol-1-yl]propan-1-ol] were, in that order, 4710 nM, 694 nM and 508 nM.
In the case of `[2H]C([2H])([2H])n1cc(-c2ncnc3oc(-c4ccccc4)cc23)c(-c2ccc(F)cc2)n1` [Example 48, 4-[3-(4-Fluorophenyl)-1-(2H3)methyl-1H-pyrazol-4-yl]-6-phenylfuro[2,3-d]pyrimidine], the IC50 in the assay with Ba/F3_EGFR WT cells (72 h) came out at 2210 nM; in the assay on BaF3_EGFR LR/CS cells (72 h), 60.4 nM; in the assay with BaF3_EGFR d19/CS cells (72 h), 47.9 nM.
The like results for `Cn1cc(-c2ncnc3oc(-c4ccccc4)cc23)c(-c2ccc(F)cc2)n1` [Example 63, 4-[3-(4-Fluorophenyl)-1-methyl-1H-pyrazol-4-yl]-6-phenylfuro[2,3-d]pyrimidine] were, in that order, 1270 nM, 35.4 nM and 48.5 nM.
As for `O=S1(=O)CCC(n2cc(-c3ncnc4oc(-c5ccccc5)cc34)c(-c3ccc(F)cc3)n2)CC1` [Example 83, 4-[3-(4-fluorophenyl)-4-(6-phenylfuro[2,3-d]pyrimidin-4-yl)-1H-pyrazol-1-yl]-1λ6-thiane-1,1-dione], the IC50 in the assay with Ba/F3_EGFR WT cells (setting [2]) is > 20000 nM; in the assay on BaF3_EGFR LR/CS cells (setting [3]) it was 529 nM; in the assay with BaF3_EGFR d19/CS cells (setting [4]), 640 nM.
For `Fc1ccc(-c2nn(CCOC(F)(F)F)cc2-c2ncnc3oc(-c4ccccc4)cc23)cc1` [Example 144, 4-{3-(4-Fluorophenyl)-1-[2-(trifluoromethoxy)ethyl]-1H-pyrazol-4-yl}-6-phenylfuro[2,3-d]pyrimidine], in that order: 1610 nM, 33.6 nM and 89.6 nM.
The like results for `Fc1ccc(-c2nn(CCC(F)F)cc2-c2ccnc3oc(-c4ccccc4)cc23)cc1` [Example 157, 4-[1-(3,3-difluoropropyl)-3-(4-fluorophenyl)-1H-pyrazol-4-yl]-2-phenylfuro[2,3-b]pyridine] were, in that order, 1590 nM, 15.2 nM and 40.8 nM.
For `O=S1(=O)CC(n2cc(-c3ncnc4oc(C5=CCN(S(=O)(=O)C6CC6)CC5)cc34)c(-c3ccc(F)cc3)n2)C1` [Example 177, 3-[4-{6-[1-(cyclopropanesulfonyl)-1,2,3,6-tetrahydropyridin-4-yl]furo[2,3-d]pyrimidin-4-yl}-3-(4-fluorophenyl)-1H-pyrazol-1-yl]-1λ6-thietane-1,1-dione], in that order: 1590 nM, 42 nM and 56.4 nM.
